Reference: US11252960B2 (KIMBERLY-CLARK WORLDWIDE, INC., priority 2017, dated 2022)

Tests used:
[1] = 25° C., cited from earlier work; for Solubility of Parabens, Ethanol: solvent ethanol; for Solubility of Parabens, Propylene glycol: solvent propylene glycol; for Solubility of Parabens, Water: solvent water
[2] = tested on: Candida albicans (ATCC 10231); experiment: Anti-fungal Minimum Inhibitory Concentration (MIC) Method, microbroth dilution; format: cell-based; conditions: Table 4, RPMI-1640, 25° C., 48 hours, pH 4.5-adjusted stock
Method: (§1) Anti-Bacterial and Anti-Fungal Minimum Inhibitory Concentration (MIC) Method Method: Microbroth Dilution Method (96-well format). Test item: […] Solvent: Sterile MilliQ water and 0.1 M Citrate Buffer pH 4.5 Media used: • Bacterial: Cation-Adjusted Mueller-Hinton Broth (CAMHB) • Fungi: RPMI-1640 Fungi: • Incubation Temperature: • 25° C. (Candida albicans) • 35° C. (Aspergillus brasiliensis) • Incubation Time: 48 hours • Inoculum Size: 5×10^4 cfu/mL • Strains: • Candida albicans (ATCC 10231) • Aspergillus brasiliensis (ATCC 16404) • End point: Inhibition of growth, Spectrophotometer Reading @ 600 nm • Reference standards: […] All solubilized and pH 4.5-adjusted test compounds were filter-sterilized before subjecting to MIC study. […] All the strains were inoculated on their respective agar medium and incubated under conditions/durations detailed above. • Preparation of inoculum: • The bacterial colony suspension in 0.85% saline was adjusted to 1 McFarland's standard using […] which was further diluted to 1:100 in CAMHB. The fungal suspension for inoculation was prepared in 0.85% saline from 6 days old culture (for mold, A. brasiliensis) and from 2 days old culture (for yeast, C. albicans) from Sabouraud Dextrose agar medium. […] Micro titer plates were prepared as per the CLSI recommendations. One hundred and seventy five microliters of Cation-adjusted Muller Hinton Broth (CAMHB) was added to the first column of a 96 well flat bottom plate, which is the media control. Second column is for the stocks of the test compounds and reference standards from which dilutions are made. Then 175 μL of CAMHB was added to the 5th, 8th and 11th columns, 75 μL of CAMHB to the 4th, 7th and 10th columns and 50 μL of CAMHB to the 3rd, 6th and 9th columns and the last column was the organism control.

[3] = tested on: Aspergillus brasiliensis (ATCC 16404); experiment: as above; format: cell-based; conditions: Table 4, RPMI-1640, 35° C., 48 hours, pH 4.5-adjusted stock
Method: as §1

[4] = format: physicochemical; conditions: pH 4.5
Method: This water was used as a test media for determining the solubility of test/reference items. Stock solutions of concentration 1 mg/mL for test items/reference items was prepared in methanol. The stock solution will be used for preparation of calibration curve standards. Calibration curve of test/reference items was prepared by serially dilution consisting of 4-5-6 concentrations in 96 well format. […] The method was as follows: Calibration curve of test items were prepared by serial dilution consisting of 8 concentrations. […] Water, 50:50). […] 40 mg of test items were weighed into tubes. […] The initial pH of the solubility samples were recorded. […] Then, the solutions were observed visually for any precipitation. […] An aliquot of the supernatant were diluted with equal volume of methanol. […] The samples were then transferred to UV plate and scanned at λmax of that particular test/reference item. Compound #12 was transferred to auto-sampler vials and submitted for LC-MS/MS analysis.

[5] = Determination of Dissociation Constant (pKa) by Potentiometric Titration Method; format: physicochemical; conditions: pH 4.5, Table 3, 0.1 mg/ml, 22° C.
Method: Potentiometric Titration Method: A calibrated pH meter was used for the assay. 50 mL solution of each test/reference item solution (0.1 mg/mL) was added to four beakers (two for acid titration and two for base titration). 0.1 N Sodium hydroxide (NaOH) solution was prepared as titrant solution. The pH electrode was placed into the beaker containing test/reference item solution. The initial pH of the solution will be recorded. 100 μL of 0.1 N NaOH was added successively with stirring and the pH at each addition was recorded. Base titrations were carried out individually in duplicates until a sudden shift in the pH was observed.

[6] = tested on: Pseudomonas aeruginosa (ATCC 9027); experiment: Anti-bacterial Minimum Inhibitory Concentration (MIC) Method, microbroth dilution; format: cell-based; conditions: Table 4; CAMHB, 37° C., 24 hours, pH 4.5-adjusted stock
Method: as §1, with “RPMI-1640 […]” for “RPMI-1640”

[7] = tested on: Staphylococcus aureus (ATCC 6538); experiment: as above; format: cell-based; conditions: Table 4; CAMHB, 37° C., 24 hours, pH 4.5-adjusted stock
Method: as §1, with “RPMI-1640 […]” for “RPMI-1640”

[8] = tested on: Escherichia coli (ATCC 8739); experiment: as above; format: cell-based; conditions: Table 4; CAMHB, 37° C., 24 hours, pH 4.5-adjusted stock
Method: as §1, with “RPMI-1640 […]” for “RPMI-1640”

[9] = tested on: Burkholderia cepacia (ATCC 25416); experiment: as above; format: cell-based; conditions: Table 4; CAMHB, 37° C., 24 hours, pH 4.5-adjusted stock
Method: as §1, with “RPMI-1640 […]” for “RPMI-1640”

Row | SMILES | MIC (%) C. albicans [2] [%] | MIC (%) C. albicans ([2]; listed as #9) [%] | MIC (%) A. brasiliensis [3] [%] | MIC (%) A. brasiliensis ([3]; listed as #9) [%] | Solubility (wt %) [4] [wt %] | pKa ([5]; ultrapure water) | MIC (%) P. aeruginosa [6] [%] | MIC (%) S. Aureus [7] [%] | MIC (%) E. coli [8] [%] | MIC (%) B. cepacia [9] [%] | Solubility of Parabens, Ethanol [1] [% w/w] | Solubility of Parabens, Propylene glycol [1] [% w/w] | Solubility of Parabens, Water [1] [% w/w] | pKa [5]
1 | CCCCOC(=O)c1ccc(O)cc1 [Butylparaben] |  |  |  |  |  |  |  |  |  |  | 68 | 49 | 0.02 | 
2 | O=C(OCCCO)c1ccccc1 [Compound 11, Benzoic acid 3-hydroxy-propyl ester] | 0.136 |  | 0.068 |  | 0.55 |  | >0.272 | 0.272 | 0.272 | 0.136 |  |  |  | > 7
3 | CCOC(=O)c1ccc(O)cc1 [Ethylparaben] |  |  |  |  |  |  |  |  |  |  | 41 | 20 | 0.11 | 

The next lines start with results.

Row | MIC (%) C. albicans [2] [%] | MIC (%) C. albicans ([2]; listed as #9) [%] | MIC (%) A. brasiliensis [3] [%] | MIC (%) A. brasiliensis ([3]; listed as #9) [%] | Solubility (wt %) [4] [wt %] | pKa ([5]; ultrapure water) | MIC (%) P. aeruginosa [6] [%] | MIC (%) S. Aureus [7] [%] | MIC (%) E. coli [8] [%] | MIC (%) B. cepacia [9] [%] | SMILES | Solubility of Parabens, Ethanol [1] [% w/w] | Solubility of Parabens, Propylene glycol [1] [% w/w] | Solubility of Parabens, Water [1] [% w/w] | pKa [5]
4 | >1 | > 1.0 | >1 | > 1.0 | >1.0 | > 7 | 0.5 | 0.25 | 0.5 | 0.25 | O=C(OCC(O)CO)c1ccccc1 (stereo not shown) [Compound 9, Benzoic acid 2,3-dihydroxypropyl ester] |  |  |  | 
5 | 0.115 |  | 0.028 |  | 0.47 | > 7 | 0.115 | 0.057 | 0.115 | 0.057 | O=C(OCCCCO)c1ccccc1 [Compound 10, Benzoic acid 4-hydroxy-butyl ester] |  |  |  | 
6 | 0.1175 |  | 0.0588 |  | 0.24 | > 7 | >0.1175 | 0.1175 | 0.0588 | 0.1175 | CCC(O)COC(=O)c1ccccc1 (stereo not shown) [Compound 12, Benzoic acid 2-hydroxy-butyl ester] |  |  |  | 
